Data as given in US5646028A, “Alkaline serine protease streptomyces griseus var. alkaliphus having enhanced stability against urea or guanidine” (The Clorox Company, priority 1995, dated 1997).
“And” between values parts separate entries of the source, which are not always exact repeats. Identical values can stand only once. Like-named read-outs stand apart in the source and are kept apart here. *1 amine or outer side, *2 acyl side, *3 side chain or, on linkers, in order; H or OH if unused. Where a SMILES comes first, the peptide text is derived from it. The star is where a group is joined. pNA = O=[N+]([O-])c1ccc(N*)cc1; Suc = O=C(CCC(=O)[*:2])[*:1]

Assays:
[1] = system: SGPC; format: biochemical, Streptomyces griseus; conditions: for % remaining activity compared to a noninhibited control: pH 8
[2] = system: SGPC; assay: Substrate specificity of SGPC with tetrapeptide substrates sAAPXpNA; format: biochemical, Streptomyces griseus; conditions: pH 8.0, 10% DMSO, 24° C.
Procedure: The enzyme was assayed with a series of tetrapeptide substrates which had the form succinyl-Ala-Ala-Pro-X-para-nitroanilide (sAAPXpNA) (SEQ ID NOS. 3-20), where X is the P1 amino acid (the residue found on the N-terminal side of the bond which is cleaved). Kinetics constants kcat and Km were determined by assaying an appropriate dilution of SGPC with eight different concentrations of each substrate. Each substrate was dissolved in 100% DMSO to a concentration of 100 mM with the exception of sAAPQpNA (SEQ ID NO. 13) which was soluble only to a concentration of 15 mM. Five ul of an appropriate dilution of SGPC was placed in the wells of a microtiter dish. The reaction was initiated by adding 95 ul of the reaction mixture which was comprised of 50 ul of sodium bicine, pH 8.0, 35 ul of water, and 10 ul of the appropriate concentration of substrate in DMSO. The final concentration of DMSO was 10% in all of the reactions. All substrate concentrations were done in triplicate and rates were determined at 24° C. using a microtiter plate reader.

[3] = target: sAAPSpNA
[4] = target: sAAPKpNA
[5] = target: sAAPMpNA
[6] = target: sAAPApNA
[7] = target: sAAPLpNA
[8] = target: sAAPCpNA
[9] = target: sAAPDpNA
[10] = target: sAAPTpNA
[11] = target: sAAPHpNA
[12] = target: sAAPVpNA
[13] = target: sAAPYpNA
[14] = target: succinyl-Ala-Ala-Pro-Phe-para-nitroanilide
[15] = target: sAAPNpNA
[16] = target: sAAPRpNA
[17] = target: sAAPQpNA
[18] = pH profile of SGPC; format: biochemical; conditions: 2 mM SAAPFpNA, 10% DMSO
[19] = Wash performance test, beaker-scale grass stain removal from cotton swatches
[20] = for % activity compared to the non-treated control: 24° C., pH 5.0

| Molecule | Km [2] [mM] | kcat [2] [S^-1] | kcat /Km [2] | other results |
| --- | --- | --- | --- | --- |
| O=C(O)CN(CCN(CC(=O)O)CC(=O)O)CC(=O)O [EDTA, ethylenediaminetetraacetic acid] | – | – | – | inhibition of SGPC (in words) [1]: no significant inhibition; % remaining activity compared to a noninhibited control [1]: 97% and 94% |
| O=C(O)CI [IOAc, iodoacetic acid] | – | – | – | inhibition of SGPC (in words) [1]: no significant inhibition; % remaining activity compared to a noninhibited control [1]: 104% and 103% |
| O=S(=O)(F)Cc1ccccc1 [PMSF, phenylmethylsulfonyl fluoride] | – | – | – | inhibition of SGPC (in words) [1]: inhibit SGPC; % remaining activity compared to a noninhibited control [1]: 0.07% and 0.06% |
| C[C@H](NC(=O)CCC(=O)O)C(=O)N[C@@H](C)C(=O)N1CCC[C@H]1C(=O)N[C@@H](C)C(=O)Nc1ccc([N+](=O)[O-])cc1 [sAAPApNA] (Suc-AAPA-pNA) | 5.29 | 36.1 | 6,826 M^-1 S^-1 | – |
| C[C@H](NC(=O)CCC(=O)O)C(=O)N[C@@H](C)C(=O)N1CCC[C@H]1C(=O)N[C@@H](CS)C(=O)Nc1ccc([N+](=O)[O-])cc1 [sAAPCpNA] (Suc-AAPC-pNA) | 4.26 | 61.3 | 14,380 M^-1 S^-1 | – |
| C[C@H](NC(=O)CCC(=O)O)C(=O)N[C@@H](C)C(=O)N1CCC[C@H]1C(=O)N[C@@H](CC(=O)O)C(=O)Nc1ccc([N+](=O)[O-])cc1 [sAAPDpNA] (Suc-AAPD-pNA) | 19.6 | 6.89 | 351 M^-1 S^-1 | – |
| C[C@H](NC(=O)CCC(=O)O)C(=O)N[C@@H](C)C(=O)N1CCC[C@H]1C(=O)N[C@@H](CCC(=O)O)C(=O)Nc1ccc([N+](=O)[O-])cc1 [sAAPEpNA] (Suc-AAPE-pNA) | – | – | – | rates seen with the substrate [2]: too samll to be reliable |
| C[C@H](NC(=O)CCC(=O)O)C(=O)N[C@@H](C)C(=O)N1CCC[C@H]1C(=O)N[C@@H](Cc1ccccc1)C(=O)Nc1ccc([N+](=O)[O-])cc1 [sAAPFpNA, succinyl-Ala-Ala-Pro-Phe-para-nitroanilide] (Suc-AAPF-pNA) | 0.29 | 39.7 | 137,600 M^-1 S^-1 | – |
| C[C@H](NC(=O)CCC(=O)O)C(=O)N[C@@H](C)C(=O)N1CCC[C@H]1C(=O)NCC(=O)Nc1ccc([N+](=O)[O-])cc1 [sAAPGpNA] (Suc-AAPG-pNA) | – | – | – | rates seen with the substrate [2]: too samll to be reliable |
| C[C@H](NC(=O)CCC(=O)O)C(=O)N[C@@H](C)C(=O)N1CCC[C@H]1C(=O)N[C@@H](Cc1cnc[nH]1)C(=O)Nc1ccc([N+](=O)[O-])cc1 [sAAPHpNA] (Suc-AAPH-pNA) | 1.09 | 24.0 | 21,960 M^-1 S^-1 | – |
| CC[C@H](C)[C@H](NC(=O)[C@@H]1CCCN1C(=O)[C@H](C)NC(=O)[C@H](C)NC(=O)CCC(=O)O)C(=O)Nc1ccc([N+](=O)[O-])cc1 [sAAPIpNA] (Suc-AAPI-pNA) | – | – | – | rates seen with the substrate [2]: too samll to be reliable |
| C[C@H](NC(=O)CCC(=O)O)C(=O)N[C@@H](C)C(=O)N1CCC[C@H]1C(=O)N[C@@H](CCCCN)C(=O)Nc1ccc([N+](=O)[O-])cc1 [sAAPKpNA] (Suc-AAPK-pNA) | 4.22 | 10.9 | 2,577 M^-1 S^-1 | – |
| CC(C)C[C@H](NC(=O)[C@@H]1CCCN1C(=O)[C@H](C)NC(=O)[C@H](C)NC(=O)CCC(=O)O)C(=O)Nc1ccc([N+](=O)[O-])cc1 [sAAPLpNA] (Suc-AAPL-pNA) | 0.92 | 24.8 | 27,030 M^-1 S^-1 | – |
| CSCC[C@H](NC(=O)[C@@H]1CCCN1C(=O)[C@H](C)NC(=O)[C@H](C)NC(=O)CCC(=O)O)C(=O)Nc1ccc([N+](=O)[O-])cc1 [sAAPMpNA] (Suc-AAPM-pNA) | 0.39 | 39.3 | 100,400 M^-1 S^-1 | – |
| C[C@H](NC(=O)CCC(=O)O)C(=O)N[C@@H](C)C(=O)N1CCC[C@H]1C(=O)N[C@@H](CC(N)=O)C(=O)Nc1ccc([N+](=O)[O-])cc1 [sAAPNpNA] (Suc-AAPN-pNA) | 2.91 | 35.3 | 12,160 M^-1 S^-1 | – |
| C[C@H](NC(=O)CCC(=O)O)C(=O)N[C@@H](C)C(=O)N1CCC[C@H]1C(=O)N[C@@H](CCC(N)=O)C(=O)Nc1ccc([N+](=O)[O-])cc1 [sAAPQpNA] (Suc-AAPQ-pNA) | 14.3 | 36.3 | 2,547 M^-1 S^-1 | – |
| C[C@H](NC(=O)CCC(=O)O)C(=O)N[C@@H](C)C(=O)N1CCC[C@H]1C(=O)N[C@@H](CCCNC(=N)N)C(=O)Nc1ccc([N+](=O)[O-])cc1 [sAAPRpNA] (Suc-AAPR-pNA) | 4.17 | 16.7 | 4,001 M^-1 S^-1 | – |
| C[C@H](NC(=O)CCC(=O)O)C(=O)N[C@@H](C)C(=O)N1CCC[C@H]1C(=O)N[C@@H](CO)C(=O)Nc1ccc([N+](=O)[O-])cc1 [sAAPSpNA] (Suc-AAPS-pNA) | 3.73 | 7.05 | 1,893 M^-1 S^-1 | – |
| C[C@H](NC(=O)CCC(=O)O)C(=O)N[C@@H](C)C(=O)N1CCC[C@H]1C(=O)N[C@H](C(=O)Nc1ccc([N+](=O)[O-])cc1)[C@@H](C)O [sAAPTpNA] (Suc-AAPT-pNA) | 4.34 | 7.69 | 1,769 M^-1 S^-1 | – |
| CC(C)[C@H](NC(=O)[C@@H]1CCCN1C(=O)[C@H](C)NC(=O)[C@H](C)NC(=O)CCC(=O)O)C(=O)Nc1ccc([N+](=O)[O-])cc1 [sAAPVpNA] (Suc-AAPV-pNA) | 1.08 | 0.53 | 1,422 M^-1 S^-1 | – |
| C[C@H](NC(=O)CCC(=O)O)C(=O)N[C@@H](C)C(=O)N1CCC[C@H]1C(=O)N[C@@H](Cc1ccc(O)cc1)C(=O)Nc1ccc([N+](=O)[O-])cc1 [sAAPYpNA] (Suc-AAPY-pNA) | 0.49 | 27.7 | 61,770 M^-1 S^-1 | – |
| S. griseus protease C (enzyme) | – | – | – | kcat /Km [3]: 1890 M^-1 S^-1; kcat /Km [4]: 2580 M^-1 S^-1; kcat /Km [5]: 100000 M^-1 S^-1; kcat /Km [6]: 6830 M^-1 S^-1; kcat /Km [7]: 27000 M^-1 S^-1; kcat /Km [8]: 14400 M^-1 S^-1; kcat /Km [9]: 351 M^-1 S^-1; kcat /Km [10]: 1770 M^-1 S^-1; kcat /Km [11]: 22000 M^-1 S^-1; kcat /Km [12]: 1420 M^-1 S^-1; kcat /Km [13]: 61800 M^-1 S^-1; kcat /Km [14]: 138000 M^-1 S^-1; kcat /Km [15]: 12200 M^-1 S^-1; kcat /Km [16]: 4000 M^-1 S^-1; kcat /Km [17]: 2550 M^-1 S^-1 |
| SGPC: alkaline serine protease from Streptomyces griseus var. alkaliphilus No. 33, apparent molecular weight about 19,000 daltons (protein, UniProt P52320 203-457, looked up) Streptogrisin-C: ADIRGGDAYYMNGSGRCSVGFSVTRGTQNGFATAGHCGRVGTTTNGVNQQAQGTFQGSTFPGRDIAWVATNANWTPRPLVNGYGRGDVTVAGSTASVVGASVCRSGSTTGWHCGTIQQLNTSVTYPEGTISGVTRTSVCAEPGDSGGSYISGSQAQGVTSGGSGNCSSGGTTYFQPINPLLQAYGLTLVTSGGGTPTDPPTTPPTDSPGGTWAVGTAYAAGATVTYGGATYRCLQAHTAQPGWTPADVPALWQRV | – | – | – | pH optimum (in words) [18]: highly alkaline pH optimum; effectiveness against grass stain compared with Savinase ([19]; equal weight of protease in the wash liquor): more effective than Savinase; (delta) % SRE (percent stain removal over a control containing no enzyme) ([19]; grass stain, cotton swatches, 37° C., powdered detergent 104 g/69 liters, pH 10.5, 0.25 mg protease/500 ml wash liquor): 59.6%; % activity compared to the non-treated control ([20]; 2 M Guanidine, 1 hour): 125.7%; % activity compared to the non-treated control ([20]; 2 M Guanidine, 24 hours): 105.7%; % activity compared to the non-treated control ([20]; 2 M Urea, 1 hour): 103.5%; % activity compared to the non-treated control ([20]; 2 M Urea, 24 hours): 98.1%; effect on the activity (in words) ([20]; 2 M to 6 M urea, 24 hr vs 1 hr): very little effect; % activity compared to the non-treated control ([20]; 4 M Guanidine, 1 hour): 130.4%; % activity compared to the non-treated control ([20]; 4 M Guanidine, 24 hours): 55.8%; % activity compared to the non-treated control ([20]; 4 M Urea, 1 hour): 118.2%; % activity compared to the non-treated control ([20]; 4 M Urea, 24 hours): 112.4%; % activity compared to the non-treated control ([20]; 6 M Guanidine, 1 hour): 98.0%; % activity compared to the non-treated control ([20]; 6 M Guanidine, 24 hours): 10.1%; % activity compared to the non-treated control ([20]; 6 M Urea, 1 hour): 116.4%; % activity compared to the non-treated control ([20]; 6 M Urea, 24 hours): 112.9%; effect on the activity (in words) ([20]; Guanidine 4 M to 6 M, 24 hr): substantial losses of activity; effect on the activity (in words) ([20]; Guanidine at 2 M, 24 hr): slight effect |
